Reference: US4769373A, “Anti-arrhythmic azabicyclic compounds” (Richter Gedeon Vegyeszeti Gyar Rt., priority 1983, dated 1988)
Where a name gives a salt, the structure may show the parent alone.

How the values were obtained:
[1] = system: disorders of the cardiac rhythm provoked by aconitine; experiment: animal or person; conditions: for ED50: Rattus norvegicus, iv, read-out: ED50 (dose required to restore the rhythm in 50%), Wistar rats, i.v., aconitine-induced arrhythmia; for ED50 (dose required to restore the rhythm in 50%): i.v., aconitine-induced arrhythmia; for LD50/ED50 index: LD50 mice i.v. / ED50 rats i.v.; for index ratio (index of the test compound : index of Lidocaine): relative to Lidocaine = 1
Method: The anti-arrhytmic effect was tested in Wistar rats. The animals first received aconitine intravenously to provoke disorders of the cardiac rhythm [M. Fekete and J. Borsy: Med. Exp. Basel, 10, 93 (1964)] and then i.v. the test (or reference) compound. […] The dose required to restore the rhythm in 50% (ED50 mg/kg) was determined.

in vivo = conditions: mouse, iv, mice, i.v., read-out: LD50 (dose causing 50% mortality)
[2] = system: ischiadic nerve isolated from frog; experiment: local anaesthetic activity on isolated ischiadic nerve; conditions: relative to Lidocaine
[3] = system: heart isolated from guinea pig; experiment: electrophysiological parameters (conduction time, refractory period) of isolated heart; conditions: relative to quinidine
Source text: The new compounds have no beta-receptor blocking effect. In a local anaesthetic mechanism of effect the compounds of the formula (I) influence certain electrophysiological parameters of the heart. E.g. increase in conduction time and refractory period were observed on heart isolated from guinea pig.

CN1CC2CCC(N(C)C)C(C1)C2Oc1ccccc1Cl (stereo not drawn) [compound 1536, 6α-dimethylamino-3-methyl-9α-(2'-chlorophenoxy)-3-azabicyclo[3.3.1]nonane dihydrochloride]
ED50 [1]: 1.8 mg/kg

CN1CC2CCC(N(C)C)C(C1)C2Oc1ccccc1 (stereo not drawn) [compound 1544, 6β-dimethylamino-3-methyl-9α-phenoxy-3-azabicyclo-[3.3.1]nonane]
ED50 (dose required to restore the rhythm in 50%) ([1]; Wistar rats): 1.4 mg/kg

CN1CC2CCC(N(C)C)C(C1)C2OC(=O)c1cccc(F)c1 (stereo not drawn) [compound 1642, 6α-dimethylamino-3-methyl-9α-(3'-fluorobenzoyloxy)-3-azabicyclo[3.3.1]nonane dihydrochloride]
ED50 [1]: 0.5 mg/kg

CN1CC2CCC(N(C)C)C(C1)C2OC(=O)c1ccccc1Cl (stereo not drawn) [compound 1644, 6α-dimethylamino-3-methyl-9α-(2'-chlorobenzoyloxy)-3-azabicyclo[3.3.1]nonane dihydrochloride monohydrate]
ED50 [1]: 1.4 mg/kg

CN1CC2CCC(N(C)C)C(C1)C2OC(=O)c1cccc(Cl)c1 (stereo not drawn) [compound 1645, 6α-dimethylamino-3-methyl-9α-(3'-chlorobenzoyloxy)-3-azabicyclo[3.3.1]nonane dihydrochloride monohydrate]
ED50 [1]: 1.2 mg/kg

CN1CC2CCC(N(C)C)C(C1)C2OC(=O)c1ccc(-c2ccccc2)cc1 (stereo not drawn) [compound 1530, 6α-dimethylamino-3-methyl-9α-(4'-phenylbenzoyloxy)-3-azabicyclo[3.3.1]nonane]
ED50 [1]: 1.8 mg/kg

CN1CC2CCC(N(C)C)C(C1)C2OC(=O)C1c2ccccc2Oc2ccccc21 (stereo not drawn) [compound 1543, 6β-dimethylamino-3-methyl-9α-(xanthen-9'-carbonyloxy)-3-azabicyclo[3.3.1]nonane]
ED50 (dose required to restore the rhythm in 50%) ([1]; Wistar rats): 0.6 mg/kg

CN1CC2CCC(N(C)C)C(C1)C2Oc1ccccc1 (stereo not drawn) [compound 1533, 6α-dimethylamino-3-methyl-9α-phenoxy-3-azabicyclo[3.3.1]nonane]
ED50 [1]: 1.4 mg/kg

COc1cc(C(=O)OC2C3CCC(N(C)C)C2CN(C)C3)cc(OC)c1OC (stereo not drawn) [compound 1529, 6α-dimethylamino-3-methyl-9α(3',4',5'-trimethoxybenzoyloxy)-3-azabicyclo[3.3.1]nonane]
LD50 (in vivo): 35.2 mg/kg | LD50/ED50 index [1]: 234.0 | ED50 [1]: 0.15 mg/kg | anti-arrhythmic effect, oral ([1]; Wistar rats, 20 mg/kg dose p.o.): prolonged anti-arrhythmic effect | index ratio (index of the test compound : index of Lidocaine) [1]: 71.8

CN1CC2CCC(N(C)C)C(C1)C2Oc1cccc(C(F)(F)F)c1 (stereo not drawn) [compound 1545, 6β-dimethylamino-3-methyl-9α-(3'-trifluoromethylphenoxy)-3-azabicyclo[3.3.1]nonane dihydrochloride]
ED50 (dose required to restore the rhythm in 50%) ([1]; Wistar rats, dihydrochloride): 1.8 mg/kg

CN1CC2CCC(N(C)C)C(C1)C2OC(=O)c1ccccc1 (stereo not drawn) [compound 1528, 6α-dimethylamino-3-methyl-9α-benzoyloxy-3-azabicyclo[3.3.1]nonane dihydrochloride]
ED50 (dose required to restore the rhythm in 50%) ([1]; Wistar rats, dihydrochloride): 0.68 mg/kg

CN1CC2CCC(N(C)C)C(C1)C2OC(=O)c1ccc(Cl)c(Cl)c1 (stereo not drawn) [compound 1643, 6α-dimethylamino-3-methyl-9α-(3',4'-dichlorobenzoyloxy)-3-azabicyclo[3.3.1]nonane dihydrochloride]
ED50 [1]: 1.2 mg/kg

CCN(CC)CC(=O)Nc1c(C)cccc1C [Lidocaine, reference compound]
ED50 [1]: 7.7 mg/kg

CN1CC2CCC(N(C)C)C(C1)C2OC(=O)c1ccccc1 (stereo not drawn) [compound 1542, 6β-dimethylamino-3-methyl-9α-benzoyloxy-3-azabicyclo[3.3.1]nonane]
LD50 (in vivo): 21.7 mg/kg | LD50/ED50 index [1]: 50.5 | ED50 (dose required to restore the rhythm in 50%) ([1]; Wistar rats): 0.43 mg/kg | index ratio (index of the test compound : index of Lidocaine) [1]: 15.5 | local anaesthetic activity compared with Lidocaine [2]: four times more favorable effective than Lidocaine | activity on electrophysiological parameters compared with quinidine [3]: about five times more active than the quinidine

CN1CC2CCC(N(C)C)C(C1)C2OC(=O)c1ccc(F)cc1 (stereo not drawn) [compound 1641, 6α-dimethylamino-3-methyl-9α-(4'-fluorobenzoyloxy)-3-azabicyclo[3.3.1]nonane dihydrochloride monohydrate]
ED50 [1]: 0.55 mg/kg

CN1CC2CCC(N(C)C)C(C1)C2OC(c1ccccc1)c1ccccc1 (stereo not drawn) [compound 1540, 6α-dimethylamino-3-methyl-9α-benzhydryloxy-3-azabiocyclo[3.3.1]nonane]
ED50 [1]: 0.4 mg/kg

CN1CC2CCC(N(C)C)C(C1)C2Oc1cccc(Cl)c1 (stereo not drawn) [compound 1535, 6α-dimethylamino-3-methyl-9α-(3'-chlorophenoxy)-3-azabicyclo[3.3.1]nonane monohydrochloride]
ED50 [1]: 2.5 mg/kg

CN1CC2CCC(N(C)C)C(C1)C2OC(=O)c1cccs1 (stereo not drawn) [compound 1797, 6α-dimethylamino-3-methyl-9α-(2'-thenoyloxy)-3-azabicyclo[3.3.1]nonane]
ED50 [1]: 0.45 mg/kg

CN1CC2CCC(N(C)C)C(C1)C2OC(=O)c1ccc(Cl)cc1 (stereo not drawn) [compound 1658, 6β-dimethylamino-3-methyl-9α-(4'-chlorobenzoyloxy)-3-azabicyclo[3.3.1]nonane dihydrochloride]
ED50 (dose required to restore the rhythm in 50%) ([1]; Wistar rats, dihydrochloride): 2.3 mg/kg

CN1CC2CCC(N(C)C)C(C1)C2Oc1ccc(Cl)cc1 (stereo not drawn) [compound 1534, 6α-dimethylamino-3-methyl-9α-(4'-chlorophenoxy)-3-azabicyclo[3.3.1]nonane fumarate]
ED50 [1]: 1.1 mg/kg

CN1CC2CCC(N(C)C)C(C1)C2Oc1ccc(Cl)c(Cl)c1 (stereo not drawn) [compound 1537, 6α-dimethylamino-3-methyl-9α-(3',4'-dichlorophenoxy)-3-azabicyclo[3.3.1]noname fumarate]
ED50 [1]: 4 mg/kg

Cc1ccc(C(=O)OC2C3CCC(N(C)C)C2CN(C)C3)cc1 (stereo not drawn) [compound 1799, 6α-dimethylamino-3-methyl-9α-(4'-methylbenzoyloxy)-3-azabicyclo[3.3.1]nonane dihydrochloride]
ED50 [1]: 1.1 mg/kg

CN1CC2CCC(N(C)C)C(C1)C2OC(=O)C1c2ccccc2Oc2ccccc21 (stereo not drawn) [compound 1531, 6α-dimethylamino-3-methyl-9α-(xanthen-9-carbonyloxy)-3-azabicyclo[3.3.1]nonane dihydrochloride]
ED50 [1]: 1 mg/kg

Cc1ccc(OC2C3CCC(N(C)C)C2CN(C)C3)cc1 (stereo not drawn) [compound 1548, 6α-dimethylamino-3-methyl-9α-(4'-methylphenoxy)-3-azabicyclo[3.3.1]nonane fumarate]
ED50 [1]: 2.5 mg/kg

CN1CC2CCC(N(C)C)C(C1)C2OC(=O)c1ccc2ccccc2c1 (stereo not drawn) [compound 1840, 6β-dimethylamino-3-methyl-9α-(2'naphthoyloxy)-3-azabicyclo[3.3.1]nonane dihydrochloride]
ED50 (dose required to restore the rhythm in 50%) ([1]; Wistar rats, dihydrochloride): 0.95 mg/kg

CN1CC2CCC(N(C)C)C(C1)C2Oc1cccc(C(F)(F)F)c1 (stereo not drawn) [compound 1539, 6α-dimethylamino-3-methyl-9α-(3'-trifluoromethylphenoxy)-3-azabicyclo[3.3.1]nonane fumarate]
LD50 (in vivo): 64 mg/kg | LD50/ED50 index [1]: 256.0 | ED50 (dose required to restore the rhythm in 50%) ([1]; Wistar rats): 0.25 mg/kg | index ratio (index of the test compound : index of Lidocaine) [1]: 78.5 | local anaesthetic activity compared with Lidocaine [2]: as active as the Lidocaine

CN1CC2CCC(N(C)C)C(C1)C2OC(=O)C1c2ccccc2Oc2ccccc21 (stereo not drawn) [compound 1547, 6α-dimethylamino-3-methyl-9β-(xanthen-9'-carbonyloxy)-3-azabicyclo[3.3.1]nonane]
LD50 (in vivo): 36.3 mg/kg | LD50/ED50 index [1]: 51.1 | ED50 (dose required to restore the rhythm in 50%) ([1]; Wistar rats): 0.71 mg/kg | index ratio (index of the test compound : index of Lidocaine) [1]: 15.7

CN1CC2CCC(N(C)C)C(C1)C2OC(=O)c1ccc(Cl)cc1 (stereo not drawn) [compound 1800, 6α-dimethylamino-3-methyl-9α-(4'-chlorobenzoyloxy)-3-azabicyclo[3.3.1]nonane dihydrochloride]
ED50 (dose required to restore the rhythm in 50%) ([1]; Wistar rats, dihydrochloride): 0.75 mg/kg

CN1CC2CCC(N(C)C)C(C1)C2OC(=O)c1ccc2ccccc2c1 (stereo not drawn) [compound 1801, 6α-dimethylamino-3-methyl-9α-(2'-naphthoyloxy)-3-azabicyclo[3.3.1]nonane]
ED50 [1]: 0.7 mg/kg

CN1CC2CCC(N(C)C)C(C1)C2OC(=O)c1ccccc1 (stereo not drawn) [compound 1541, 6α-dimethylamino-3-methyl-9β-benzoyloxy-3-azabicyclo[3.3.1]nonane dihydrochloride]
ED50 (dose required to restore the rhythm in 50%) ([1]; Wistar rats, dihydrochloride): 3.5 mg/kg

CN1CC2CCC(N(C)C)C(C1)C2OC(=O)c1cccc(C(F)(F)F)c1 (stereo not drawn) [compound 1648, 6α-dimethylamino-3-methyl-9α-(3'-trifluoremethylbenzoyloxy)-3-azabicyclo[3.3.1]nonane dihydrochloride]
ED50 [1]: 1 mg/kg
